# Test results from patent US9551021B2, “Methods and compositions for detecting pathogenic bacteria” (Washington University, priority 2012, dated 2017).
# “Also recorded” adds a separate entry of the source.
# What was measured:
# [1] = tested on: E. coli clinical isolates; experiment: Antimicrobial susceptibility of clinical isolates by disk diffusion; format: cell-based; conditions: for resistant clinical isolates: 337 bacteriuric inpatient clinical isolates
# Text: The samples were collected as part of a Washington University Institutional Review Board-approved prospective study of patients with E. coli bacteriuria (>5×10^4 colony forming units per milliliter) described by Marschall et al.^11 Strains without associated blood culture data were not excluded from this study. Briefly, clinical isolates were collected from male and female patients with significant bacteriuria. Bacterial DNA was extracted using a QIAamp DNA mini kit (Qiagen, Valencia, Calif.). DNA probes for virulence genes were conducted as previously described^11, and the presence of these genes was determined by dot-blot hybridization using a microarray system as described elsewhere (Table 1). E. coli phylogenetic group was determined from hybridization results using the triple genotyping method of Clermont et al.^25 Antimicrobial susceptibility was determined using disk diffusion tests. Bacteriuria was defined as? 5×10^4 colony forming units (CFU)/mL in non-catheterized patients and ≧5×10^3 CFU/mL in catheterized patients, as well as by using the patients' documented urinary symptoms. Pyelonephritis was defined as the presence of flank pain and tenderness and/or fever; sepsis and sepsis-induced hypotension were defined using established clinical criteria. The Microbiology Laboratory at Barnes Jewish Hospital provided clinical antibiogram data.
# RAW264.7 macrophages = conditions: 25 mM DPI, data not shown
# [2] = Superoxide dismutase (SOD) activity, xanthine/xanthine oxidase WST-1 formazan assay; format: biochemical; conditions: for superoxide dismutase activity (in words) / SOD activity, percentage inhibition rate: WST-formazan assay, no added protein; for superoxide dismutase activity in the presence of protein: 1.0 mg/mL bovine serum albumin
# Method: Reduction of WST-1 was monitored at 440 nm in a final volume of 100 μL. One unit of activity was defined as the amount of compound which blocked 50% WST-1 reduction under these conditions. […] To determine whether SOD activity is retained in the presence of protein, these experiments were repeated in the presence of 1.0 mg/mL bovine serum albumin (Sigma).
# UTI89ΔybtS = experiment: Copper mediated cytotoxicity assay, yersiniabactin-deficient strain; format: cell-based, E. coli
# Method: (§1) Following overnight growth in 50 mL M63 minimal media, bacterial cultures were washed twice in phosphate buffered saline (PBS, Sigma) and centrifuged at 6,500 rpm. Washed cultures were resuspended in fresh M63 minimal media, and normalized to 10^8 CFU/mL for subsequent treatment. Normalized cultures were treated with varying concentrations of copper (II) sulfate and test agent in 2 mL reaction volumes in 6-well tissue culture plates. Samples were incubated for 20 hours at 37° C. with shaking. Bacterial viability was reported as the number of colony forming units per milliliter of the reaction volume post-treatment (CFU/mL).
# UT189 = experiment: Copper mediated cytotoxicity assay, wild type strain; format: cell-based, E. coli; conditions: for effect on viability: 20 μM alone, no copper; for effect on copper (II) sulfate toxicity: exogenous addition of 20 μM
# Method: as §1
# [3] = tested on: urinary pathogenic E. coli strain; experiment: In vitro growth of urinary pathogenic E. coli strain; format: cell-based; conditions: at levels that inhibit yersiniabactin biosynthesis
# Text: (§2) The ability of PAS to inhibit yersiniabactin biosynthesis in a urinary pathogenic E. coli strain was examined.
# [4] = tested on: yersiniabactin biosynthesis; experiment: Inhibition of yersiniabactin biosynthesis in a urinary pathogenic E. coli strain; format: cell-based
# Text: as §2
# [5] = Free copper (I) determination with bathocuproine; conditions: for reduction of copper (II) to copper (I): 20 μM reductant, 17.5 μM copper (II) sulfate
# Method: Free copper (I) was determined spectrophotometrically using the copper (I) indicator bathocuproine. Briefly, 25 μM bathocuproine, 25 μM apo-yersiniabactin, and 17.5 μM copper (II) sulfate, were used in combination in order-of-addition experiments, as well as alone as controls in PBS. Either 20 μM enterobactin (Sigma) or its catecholate moiety, 2,3-dihydroxybenzoic acid (DHB) were added as bioreductants. Following a 30 minute room temperature incubation, 25 μM bathocuproine was added and copper (I) levels were determined by measuring the visible absorbance at 480 nm of the cuprous-bathocuproine complex. Final concentrations of copper (I) were determined by comparison to a standard curve.
# [6] = UV-Vis spectroscopy of metal interaction; format: physicochemical; conditions: purified HPTT with Fe (III) and Cu (II)
# Text: At this point, it had been confirmed that HPTT is detectable in vivo in a model UPEC strain that makes yersiniabactin. FIG. 24 confirms that HPTT is detected in wildtype UT189 but not UT189 strains comprising deletions in the yersiniabactin synthesis pathway (ybtS and ybtE). Given that HPTT is being secreted outside the cell and that it is made in relatively high abundance, we wanted to see if HPTT could be performing a specific function for the bacteria, and not simply a transient intermediate along the way to Ybt (FIG. 24). Given that its structure is similar to yersiniabactin, a siderophore, we hypothesized that it could interact with metals. Using solid phase extraction and HPLC, HPTT was purified to homogeneity with no contaminants, as detectable by HPLC. The purified compound was used to look for interactions with iron and copper by UV-Vis spectroscopy.
compound,measurement,setting,value
trimethoprim-sulfamethoxazole [TMP/S],resistant clinical isolates,[1],29%
same,resistant clinical isolates,[1]; listed as trimethoprim/sulfamethoxazole (TMP/S),96 (29) total (%)
same,susceptibility,"[1]; fyuA+iroN siderophore genotype (CI community 3, BC 1+3)",highly susceptible
same,association with phenotypic resistance,"[1]; fyuA+iucD strategists (CI community 2, BC 1+2)",moderately with TMP/S resistance
"c1ccc2c(c1)[I+]c1ccccc1-2 [DPI, Diphenyleneiodonium]",oxidative-burst activity,RAW264.7 macrophages,decreased oxidative-burst activity to background levels
same,phagocytosis,RAW264.7 macrophages,without any gross defect in phagocytosis
bovine Cu/Zn SOD: bovine Cu/Zn superoxide dismutase used as a standard (Sigma S-7571),superoxide dismutase activity (in words),[2],completely inhibited superoxide anion formation
"O=S(=O)([O-])[O-].[Cu+2] [copper sulfate, copper (II) sulfate]",decrease in bacterial viability,UTI89ΔybtS; 10 μM copper sulfate alone,> 3 log CFU/mL
same,reduction of viable colonies,UT189; 10 μM copper (II) sulfate alone,2.5 log
same,superoxide dismutase activity in the presence of protein,[2],suppressed
same,"SOD activity, percentage inhibition rate",[2],33.8%
same,superoxide dismutase activity (in words),[2],did not demonstrate any superoxide dismutase like activity
"Nc1ccc(C(=O)O)c(O)c1 [PAS, Para-aminosalicylic acid]",inhibition of in vitro growth,[3],did not inhibit in vitro growth; also recorded: without inhibiting growth
same,inhibition of yersiniabactin biosynthesis,[4],selectively inhibits yersiniabactin biosynthesis
[Cl][Fe]([Cl])[Cl] [ferric chloride],superoxide dismutase activity (in words),[2],did not demonstrate any superoxide dismutase like activity
CC(C)(C1=N[C@@](C)(C(=O)O)CS1)[C@H](O)[C@@H]1CSC([C@H]2CSC(c3ccccc3O)=N2)[N-]1.[Fe] (stereo partly drawn) [ferric complexes of yersiniabactin],"SOD activity, percentage inhibition rate",[2],41.4%
same,superoxide dismutase activity (in words),[2],demonstrated SOD-like activity
copper (II)-salicylate,superoxide dismutase activity in the presence of protein,[2],suppressed; also recorded: quenched
same,"SOD activity, percentage inhibition rate",[2],61.6%
O=C(N[C@H]1COC(=O)[C@@H](NC(=O)c2cccc(O)c2O)COC(=O)[C@@H](NC(=O)c2cccc(O)c2O)COC1=O)c1cccc(O)c1O [enterobactin],effect on viability,UT189,minimal effect
same,effect on copper (II) sulfate toxicity,UT189,enhances copper (II) sulfate toxicity
same,reduction of copper (II) to copper (I),[5],84.7%
hydroxphenyl-thiazolinyl-thaizolinyl [HPTT],UV-Vis spectra in the presence of metal,[6],red-shifted
"O=C(O)c1cccc(O)c1O [DHB, 2,3-dihydroxybenzoic acid]",effect on viability,UT189,minimal effect
same,effect on copper (II) sulfate toxicity,UT189,enhances copper (II) sulfate toxicity
same,reduction of copper (II) to copper (I),[5],93.1%
CC(C)(C1=N[C@@](C)(C(=O)O)CS1)[C@H](O)[C@@H]1CSC([C@H]2CSC(c3ccccc3O)=N2)N1 (stereo partly drawn) [apo-yersiniabactin],cytoprotection from copper toxicity,UTI89ΔybtS; added in 1.5-fold molar excess over copper (II) sulfate,restores growth to untreated wild type levels
same,effect on bacterial viability,UTI89ΔybtS; in the absence of copper,negligible effect
same,decrease in viable cells compared to wild type,UTI89ΔybtS; purified apo-Ybt added with 10 μM copper sulfate,0.024 log
same,superoxide dismutase activity (in words),[2],did not demonstrate superoxide dismutase activity and not
same,copper (I) bathocuproine signal,"[5]; apo-Ybt added before enterobactin or DHB, listed as Apo-yersiniabactin",prevents catechol-dependent reduction
same,copper (I) bathocuproine signal,"[5]; apo-Ybt added before enterobactin or DHB, listed as apo-Ybt",almost completely blocked
same,copper (I) bathocuproine signal,[5]; enterobactin or DHB added before apo-Ybt,restored the copper (I) signal
